Measured values as given in patent US11479802B2, “Assays for screening activity of modulators of members of the hydroxy steroid (17-beta) dehydrogenase (HSD17B) family” (Regeneron Pharmaceuticals, Inc., priority 2017, dated 2022).

Biological target: T1, human HSD17B13 (Homo sapiens, UniProt Q7Z5P4)
T1 sequence (Q7Z5P4 20-300): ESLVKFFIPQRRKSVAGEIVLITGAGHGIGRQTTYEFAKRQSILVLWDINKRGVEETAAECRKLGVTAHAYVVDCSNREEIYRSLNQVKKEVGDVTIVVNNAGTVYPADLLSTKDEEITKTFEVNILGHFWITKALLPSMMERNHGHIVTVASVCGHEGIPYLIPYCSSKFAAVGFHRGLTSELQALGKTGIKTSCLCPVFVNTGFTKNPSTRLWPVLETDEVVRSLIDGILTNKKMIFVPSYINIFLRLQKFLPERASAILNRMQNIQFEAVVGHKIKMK
Assay: Substrate screening of steroid and bioactive lipid libraries against purified recombinant HSD17B13 (NADH-linked luciferase assay)
Type: biochemical
Settings: for HSD17B13 Enzymatic Activity Relative Light Units: 500 μM NAD+, 100 ng enzyme, 3 hours at 23° C.; for HSD17B13 Enzymatic Activity Percent Estradiol Control: normalized to 50 μM estradiol after subtraction of 5% DMSO
Summary of the method: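 Substrates (bioactive lipids 5 μM, steroids 50 μM; 5% DMSO) tested with 500 μM NAD+ and 100 ng recombinant human HSD17B13 in 0.2 M Tris-HCl pH 7.5, 3 h, 23° C. Luminescent NADH detection followed 1 h later; RLU normalized to estradiol (50 μM, 100%) and DMSO (0%) controls.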

[1] = Bioactive Lipid Library, 5 μM bioactive lipid (Estradiol Control 50 μM)
[2] = Bioactive Lipid Library, 5 μM bioactive lipid

## CCCCCCCC/C=C\CCCCCCCC(=O)O [Oleic Acid]
Steroid Library, 50 μM steroid
  HSD17B13 Enzymatic Activity Relative Light Units: 17520 RLU
  HSD17B13 Enzymatic Activity Percent Estradiol Control: −2.50%

## C[C@]12C/C(=C/O)C(=O)C[C@@H]1CC[C@@H]1[C@@H]2CC[C@@]2(C)[C@H]1CC[C@]2(C)O [Oxymetholone]
Steroid Library, 50 μM steroid
  HSD17B13 Enzymatic Activity Relative Light Units: 92000 RLU
  HSD17B13 Enzymatic Activity Percent Estradiol Control: −1.20%

## CCCCCCCCCCCCCCCC(=O)OC[C@H](COP(=O)([O-])OCC[N+](C)(C)C)OC(=O)CCCC(=O)O [PGPC]
[1]
  HSD17B13 Enzymatic Activity Relative Light Units: 371440 RLU
[2]
  HSD17B13 Enzymatic Activity Percent Estradiol Control: 6.98%

## C[C@]12C=CC(=O)C=C1CC[C@@H]1[C@@H]2C(=O)C[C@@]2(C)[C@H]1CC[C@]2(O)C(=O)CO [Prednisone]
Steroid Library, 50 μM steroid
  HSD17B13 Enzymatic Activity Relative Light Units: 196720 RLU
  HSD17B13 Enzymatic Activity Percent Estradiol Control: 0.63%

## CC(=O)[C@H]1CC[C@H]2[C@@H]3CCC4=CC(=O)CC[C@]4(C)[C@H]3CC[C@]12C [Progesterone]
Steroid Library, 50 μM steroid
  HSD17B13 Enzymatic Activity Relative Light Units: 175680 RLU
  HSD17B13 Enzymatic Activity Percent Estradiol Control: 0.26%

## CCCCC[C@H](O)/C=C/[C@H]1C=CC(=O)[C@@H]1CCCCCCC(=O)NCCCCCNC(=O)CCCC[C@@H]1SC[C@@H]2NC(=O)N[C@@H]21 [Prostaglandin A1-biotin]
[1]
  HSD17B13 Enzymatic Activity Relative Light Units: 309320 RLU
[2]
  HSD17B13 Enzymatic Activity Percent Estradiol Control: 2.07%

## CC/C=C\C[C@H](O)/C=C/[C@H]1C=CC(=O)[C@@H]1C/C=C\CCCC(=O)O [Prostaglandin A3]
[1]
  HSD17B13 Enzymatic Activity Relative Light Units: 227000 RLU
[2]
  HSD17B13 Enzymatic Activity Percent Estradiol Control: −4.43%

## CC/C=C\C[C@H](O)/C=C/[C@H]1C(=O)C[C@H](O)[C@@H]1C/C=C\CCCC(=O)O [Prostaglandin D3]
[1]
  HSD17B13 Enzymatic Activity Relative Light Units: 298960 RLU
[2]
  HSD17B13 Enzymatic Activity Percent Estradiol Control: 1.25%

## CCCCC[C@H](O)/C=C/[C@H]1[C@H](O)CC(=O)[C@@H]1C/C=C\CCCC(=O)Oc1ccc(NC(=O)c2ccccc2)cc1 [Prostaglandin E2 p-benzamidophenyl ester]
[1]
  HSD17B13 Enzymatic Activity Relative Light Units: 404280 RLU
[2]
  HSD17B13 Enzymatic Activity Percent Estradiol Control: 9.58%

## CCCCC[C@H](O)/C=C/[C@H]1[C@H](O)CC(=O)[C@@H]1C/C=C\CCCC(=O)NCCCCCNC(=O)CCCC[C@H]1SC[C@@H]2NC(=O)N[C@@H]21 [Prostaglandin E2-biotin]
[1]
  HSD17B13 Enzymatic Activity Relative Light Units: 389960 RLU
[2]
  HSD17B13 Enzymatic Activity Percent Estradiol Control: 4.90%

## CC/C=C\C[C@H](O)/C=C/[C@H]1[C@H](O)CC(=O)[C@@H]1C/C=C\CCCC(=O)O [Prostaglandin E3]
[1]
  HSD17B13 Enzymatic Activity Relative Light Units: 379960 RLU
[2]
  HSD17B13 Enzymatic Activity Percent Estradiol Control: 7.66%

## CCCCC[C@H](O)/C=C/[C@@H]1[C@@H](C/C=C\CCCC(=O)NCCCCCNC(=O)CCCC[C@H]2SC[C@@H]3NC(=O)N[C@@H]32)[C@@H](O)C[C@H]1O [Prostaglandin F2α-biotin]
[1]
  HSD17B13 Enzymatic Activity Relative Light Units: 340200 RLU
[2]
  HSD17B13 Enzymatic Activity Percent Estradiol Control: 1.14%

## CC/C=C\C[C@H](O)/C=C/[C@@H]1[C@@H](C/C=C\CCCC(=O)O)[C@@H](O)C[C@H]1O [Prostaglandin F3α]
[1]
  HSD17B13 Enzymatic Activity Relative Light Units: 385360 RLU
[2]
  HSD17B13 Enzymatic Activity Percent Estradiol Control: 8.08%

## CCCCC[C@H](O)/C=C/[C@@H]1[C@@H](CCCCCCC(=O)O)[C@@H]2C[C@H]1OO2 [Prostaglandin H1]
[1]
  HSD17B13 Enzymatic Activity Relative Light Units: 145840 RLU
[2]
  HSD17B13 Enzymatic Activity Percent Estradiol Control: −10.85%

## CCCCC[C@H](O)/C=C/[C@@H]1[C@@H](C/C=C\CCCC(=O)O)[C@@H]2C[C@H]1OO2 [Prostaglandin H2]
[1]
  HSD17B13 Enzymatic Activity Relative Light Units: 166640 RLU
[2]
  HSD17B13 Enzymatic Activity Percent Estradiol Control: −9.20%

## CC/C=C\C[C@H](O)/C=C/[C@@H]1[C@H]2C/C(=C/CCCC(=O)[O-])O[C@H]2C[C@H]1O.[Na+] [Prostaglandin I3 (sodium salt)]
[1]
  HSD17B13 Enzymatic Activity Relative Light Units: 333560 RLU
[2]
  HSD17B13 Enzymatic Activity Percent Estradiol Control: 3.99%

## CCCCC[C@H](O)/C=C/[C@H]1C(=O)CC(=O)[C@@H]1CCCCCCC(=O)O [Prostaglandin K1]
[1]
  HSD17B13 Enzymatic Activity Relative Light Units: 223160 RLU
[2]
  HSD17B13 Enzymatic Activity Percent Estradiol Control: −4.74%

## CCCCC[C@H](O)/C=C/[C@H]1C(=O)CC(=O)[C@@H]1C/C=C\CCCC(=O)O [Prostaglandin K2]
[1]
  HSD17B13 Enzymatic Activity Relative Light Units: 155600 RLU
[2]
  HSD17B13 Enzymatic Activity Percent Estradiol Control: −10.08%

## C[C@]12CC[C@H](O)C[C@H]1CC[C@@H]1[C@@H]2CC[C@]2(C)[C@@](O)(c3ccoc3)CC[C@]12O [Rostafuroxin]
Steroid Library, 50 μM steroid
  HSD17B13 Enzymatic Activity Relative Light Units: 187520 RLU
  HSD17B13 Enzymatic Activity Percent Estradiol Control: 0.47%

## CC(=O)S[C@@H]1CC2=CC(=O)CC[C@]2(C)[C@H]2CC[C@@]3(C)[C@@H](CC[C@@]34CCC(=O)O4)[C@H]12 [Spironolactone]
Steroid Library, 50 μM steroid
  HSD17B13 Enzymatic Activity Relative Light Units: 184280 RLU
  HSD17B13 Enzymatic Activity Percent Estradiol Control: 0.41%

## C[C@]12Cc3c[nH]nc3C[C@@H]1CC[C@@H]1[C@@H]2CC[C@@]2(C)[C@H]1CC[C@]2(C)O [Stanazol]
Steroid Library, 50 μM steroid
  HSD17B13 Enzymatic Activity Relative Light Units: 140840 RLU
  HSD17B13 Enzymatic Activity Percent Estradiol Control: −0.35%

## C[C@@H]1C[C@@]2(C)[C@@H](CC[C@@H]3[C@@H]2CC[C@@]2(C)[C@H]3CC[C@]2(C)O)CC1=O [Superdrol]
Steroid Library, 50 μM steroid
  HSD17B13 Enzymatic Activity Relative Light Units: 105920 RLU
  HSD17B13 Enzymatic Activity Percent Estradiol Control: −0.95%

## CC/C=C\C[C@H](O)/C=C/[C@H]1OC(O)C[C@H](O)[C@@H]1C/C=C\CCCC(=O)O (stereo partly shown) [Thromboxane B3]
[1]
  HSD17B13 Enzymatic Activity Relative Light Units: 348080 RLU
[2]
  HSD17B13 Enzymatic Activity Percent Estradiol Control: 5.14%

## CCCCC/C=C\C[C@@H](O)/C=C/c1cccc(C[C@@H](O)CCCCO)n1 [U-75302]
[1]
  HSD17B13 Enzymatic Activity Relative Light Units: 425520 RLU
[2]
  HSD17B13 Enzymatic Activity Percent Estradiol Control: 7.59%

## CCCCC/C=C\C[C@@H](O)/C=C/C=C\CCC(=O)O [tetranor-12(R)-HETE]
[1]
  HSD17B13 Enzymatic Activity Relative Light Units: 708640 RLU
[2]
  HSD17B13 Enzymatic Activity Percent Estradiol Control: 31.37%

## CCCCC/C=C\C[C@H](O)/C=C/C=C\CCC(=O)O [tetranor-12(S)-HETE]
[1]
  HSD17B13 Enzymatic Activity Relative Light Units: 379280 RLU
[2]
  HSD17B13 Enzymatic Activity Percent Estradiol Control: 4.10%

## [2H]C([2H])(CC(=O)CC[C@H]1C(=O)C[C@H](O)[C@@H]1CCC(=O)O)C([2H])([2H])C([2H])([2H])C(=O)O [tetranor-PGDM-d6]
[1]
  HSD17B13 Enzymatic Activity Relative Light Units: 375520 RLU
[2]
  HSD17B13 Enzymatic Activity Percent Estradiol Control: 3.81%

## O=C(O)CCCCC(=O)CC[C@H]1[C@H](O)CC(=O)[C@@H]1CCC(=O)O [tetranor-PGEM]
[1]
  HSD17B13 Enzymatic Activity Relative Light Units: 348440 RLU
[2]
  HSD17B13 Enzymatic Activity Percent Estradiol Control: 5.17%

## O=C(O)CCCCC(=O)CC[C@@H]1[C@@H](CCC(=O)O)[C@@H](O)C[C@H]1O [tetranor-PGFM]
[1]
  HSD17B13 Enzymatic Activity Relative Light Units: 367640 RLU
[2]
  HSD17B13 Enzymatic Activity Percent Estradiol Control: 6.68%

## CCCCC[C@H](O)C/C=C1/C(=O)C=C[C@@H]1C/C=C\CCCC(=O)O [Δ12-Prostaglandin J2]
[1]
  HSD17B13 Enzymatic Activity Relative Light Units: 343320 RLU
[2]
  HSD17B13 Enzymatic Activity Percent Estradiol Control: 4.76%

## CC/C=C\C[C@H](O)/C=C/[C@@H]1[C@@H](CC(=O)CCCCC(=O)O)[C@@H](O)C[C@H]1O [Δ17-6-keto Prostaglandin F1α]
[1]
  HSD17B13 Enzymatic Activity Relative Light Units: 286120 RLU
[2]
  HSD17B13 Enzymatic Activity Percent Estradiol Control: 0.24%

## (±)11(12)-EET
[1]
  HSD17B13 Enzymatic Activity Relative Light Units: 306600 RLU
[2]
  HSD17B13 Enzymatic Activity Percent Estradiol Control: 1.47%

## Androstanolone acetate
Steroid Library, 50 μM steroid
  HSD17B13 Enzymatic Activity Relative Light Units: 200560 RLU
  HSD17B13 Enzymatic Activity Percent Estradiol Control: 0.70%

## Cholesteryl Linoleate Hydroperoxides
[1]
  HSD17B13 Enzymatic Activity Relative Light Units: 256120 RLU
[2]
  HSD17B13 Enzymatic Activity Percent Estradiol Control: −2.28%

## D-myo-Inositol-1,2,3,4-tetraphosphate (sodium salt)
[1]
  HSD17B13 Enzymatic Activity Relative Light Units: 447960 RLU
[2]
  HSD17B13 Enzymatic Activity Percent Estradiol Control: 9.28%

## Epiandrosterone acetate
Steroid Library, 50 μM steroid
  HSD17B13 Enzymatic Activity Relative Light Units: 210960 RLU
  HSD17B13 Enzymatic Activity Percent Estradiol Control: 0.88%

## Prostaglandin D2-biotin
[1]
  HSD17B13 Enzymatic Activity Relative Light Units: 367880 RLU
[2]
  HSD17B13 Enzymatic Activity Percent Estradiol Control: 3.24%

## Ptdlns-(3)-P1 (1,2-dioctanoyl) (sodium salt)
[1]
  HSD17B13 Enzymatic Activity Relative Light Units: 319680 RLU
[2]
  HSD17B13 Enzymatic Activity Percent Estradiol Control: −0.40%
